Experimental data published in US7642354B2, “Polycyclic pyrazines as potassium ion channel modulators” (Icagen, Inc., priority 2004, dated 2010).

What follows are compounds tested against hSK2 (Homo sapiens, UniProt Q9H2S1) (assay: Assay for compound activity towards hSK channels (86Rb+ efflux)). Details: 86Rb+ efflux stimulated with calcium ionophore; drug 0.01 to 30 μM in EBSS; read-out: hSK2 Inhibitory Activity.
Type: cell-based
Procedure: 18.1 Assay for Compound Activity Towards hSK Channels Cells expressing small conductance, calcium activated potassium channels, such as SK-like channels were loaded with ^86Rb^+ by culture in media containing ^86RbCl. Following loading, the culture media was removed and the cells were washed in EBSS to remove residual traces of ^86Rb^+. Cells were preincubated with the drug (0.01 to 30 μM in EBSS) and then ^86Rb^+ efflux was stimulated by exposing cells to EBSS solution supplemented with a calcium ionophore, such as ionomycin, in the continued presence of the drug. After a suitable efflux period, the EBSS/ionophore solution was removed from the cells and the ^86Rb^+ content was determined by Cherenkov counting (Wallac Trilux). Cells were then lysed with a SDS solution and the ^86Rb^+ content of the lysate was determined. Percent ^86Rb^+ efflux was calculated according to the following equation: (^86Rb^+ content in EBSS/(^86Rb^+ content in EBSS+^86Rb^+ content of the lysate))×100

Compound	IC50 [µM]
c1ccc(-c2cncc(Nc3nc[nH]n3)n2)nc1 [(6-Pyridin-2-yl-pyrazin-2-yl)-(1H-[1,2,4]triazol-3-yl)-amine]	3 to 30
c1ccc(-c2cncc(Nc3nnn[nH]3)n2)nc1 [(6-Pyridin-2-yl-pyrazin-2-yl)-(1H-tetrazol-5-yl)-amine]	3 to 30
c1ccc(-c2cncc(Nc3ccc(N4CCCCC4)cn3)n2)nc1 [(6-Pyridin-2-yl-pyrazin-2-yl)-(3,4,5,6-tetrahydro-2H-[1,3′]bipyridinyl-6′-yl)-amine]	< 0.05
c1ccc(-c2cncc(Nc3ccc(N4CCCC4)cn3)n2)nc1 [(6-Pyridin-2-yl-pyrazin-2-yl)-(5-pyrrolidin-1-yl-pyridin-2-yl)-amine]	< 0.05
c1ccc(-c2cncc(Nc3cc(-c4cccs4)n[nH]3)n2)nc1 [(6-Pyridin-2-yl-pyrazin-2-yl)-(5-thiophen-2-yl-2H-pyrazol-3-yl)-amine]	3 to 30
c1ccc(-c2cncc(Nc3ccc(-c4cccs4)cn3)n2)nc1 [(6-Pyridin-2-yl-pyrazin-2-yl)-(5-thiophen-2-yl-pyridin-2-yl)-amine]	0.05 to 1
c1ccc(-c2cncc(Nc3ccc(-c4ccsc4)cn3)n2)nc1 [(6-Pyridin-2-yl-pyrazin-2-yl)-(5-thiophen-3-yl-pyridin-2-yl)-amine]	0.05 to 1
c1ccc(-c2cncc(Nc3nccnn3)n2)nc1 [(6-Pyridin-2-yl-pyrazin-2-yl)-[1,2,4]triazin-3-yl-amine]	3 to 30
c1ccc(-c2cncc(Nc3nncs3)n2)nc1 [(6-Pyridin-2-yl-pyrazin-2-yl)-[1,3,4]thiadiazol-2-yl-amine]	3 to 30
c1ccc(-c2cncc(Nc3ncncn3)n2)nc1 [(6-Pyridin-2-yl-pyrazin-2-yl)-[1,3,5]triazin-2-yl-amine]	3 to 30
c1ccc(-c2cncc(Nc3ncccn3)n2)nc1 [(6-Pyridin-2-yl-pyrazin-2-yl)-pyrimidin-2-yl-amine]	3 to 30
c1ccc(-c2cncc(Nc3ccncn3)n2)nc1 [(6-Pyridin-2-yl-pyrazin-2-yl)-pyrimidin-4-yl-amine]	3 to 30
c1ccc(-c2cncc(Nc3ccc4ccccc4n3)n2)nc1 [(6-Pyridin-2-yl-pyrazin-2-yl)-quinolin-2-yl-amine]	3 to 30
c1ccc(-c2cncc(Nc3nccs3)n2)nc1 [(6-Pyridin-2-yl-pyrazin-2-yl)-thiazol-2-yl-amine]	3 to 30
CCN(CC)C(=O)c1ccc(Nc2cncc(-c3ccccn3)n2)nc1 [N,N-Diethyl-6-(6-pyridin-2-yl-pyrazin-2-ylamino)-nicotinamide]	3 to 30
Nc1ccc(Nc2cncc(-c3ccccn3)n2)nc1 [N^2-(6-Pyridin-2-yl-pyrazin-2-yl)-pyridine-2,5-diamine]	0.05 to 1
COCCN(C)c1ccc(Nc2cncc(-c3ccccn3)n2)nc1 [N^5-(2-Methoxy-ethyl)-N^5-methyl-N^2-(6-pyridin-2-yl-pyrazin-2-yl)-pyridine-2,5-diamine]	< 0.05
O=C(c1ccccc1)c1nccnc1Nc1cncc(-c2ccccn2)n1 [Phenyl-[3-(6-pyridin-2-yl-pyrazin-2-ylamino)-pyrazin-2-yl]-methanone]	3 to 30
c1ccc(-c2cncc(Nc3cnccn3)n2)nc1 [Pyrazin-2-yl-(6-pyridin-2-yl-pyrazin-2-yl)-amine]	0.05 to 1
c1ccc(Nc2cncc(-c3ccccn3)n2)nc1 [Pyridin-2-yl-(6-pyridin-2-yl-pyrazin-2-yl)-amine]	< 0.05
c1ccc(Nc2cncc(-c3cc(N4CCCC4)ccn3)n2)nc1 [Pyridin-2-yl-[6-(4-pyrrolidin-1-yl-pyridin-2-yl)-pyrazin-2-yl]-amine]	0.05 to 1
c1ccc(-c2cncc(Nc3ccc(-c4cccnc4)cn3)n2)nc1 [[3,3′]Bipyridinyl-6-yl-(6-pyridin-2-yl-pyrazin-2-yl)-amine]	0.05 to 1
O=C(c1nccnc1Nc1cncc(-c2ccccn2)n1)N1CCCC1 [[3-(6-Pyridin-2-yl-pyrazin-2-ylamino)-pyrazin-2-yl]-pyrrolidin-1-yl-methanone]	3 to 30
